Here are results for four compounds from article PMC12430278, “A Simple and Reliable Method for the Determination of Isorhapontigenin in Murine Biological Matrices: Application in a Tissue Distribution Study” (Molecules, 2025).

The conditions of series [1]: cited from earlier work; for Oral absorption: in vivo.
For series [2] the following is noted: enzymatic-hydrolysis approach; cited from earlier work.
Series [3] can be described thus: Stability of stock solutions. Particulars: DMSO stock solution, stock solution 0.40 mg/mL, n = 6, read-out: Remaining (%, Mean ± SD). The class given is physicochemical. As for the experimental part:
Stock solutions of ISO and trans-stilbene (internal standard, IS) were prepared in DMSO at a final concentration of 1 mg/mL. These solutions were stored at −20 °C and protected from light. The calibration standard and quality control (QC) samples were prepared by serial dilution of the ISO stock solution with pooled blank murine plasma or respective tissue homogenate.
The stability of ISO was evaluated under various storage conditions. Stock solution stability was assessed after storage at room temperature (25 °C) and –20 °C. The stability of ISO in plasma was examined under the following conditions: short-term storage (25 °C for 24 h), long-term storage (–80 °C for 52 days), three freeze–thaw cycles, and post-preparative stability (samples kept in an autosampler at 4 °C for more than 24 h). As it is difficult to evaluate ISO stability directly in tissues, only the short-term stability in tissue homogenates was assessed (6 h on ice). Similarly, post-preparative stability in processed tissue samples was assessed using liver homogenate as a representative, due to the complexity of the hepatic matrix. Stability was considered acceptable if 85–115% of the initial ISO concentration remained.

Regarding `Oc1cc(O)cc(/C=C/c2ccc(O)cc2O)c1` [oxyresveratrol], the Oral absorption result in series [1] is recorded as “rapid oral absorption”.

Regarding `Oc1cc(O)cc(/C=C/c2ccc(O)c(O)c2)c1` [piceatannol, reference compound], in series [1], the Oral absorption result is “rapid oral absorption”. Moreover, the Sulfation result in series [2] is reported as “extensive sulfation”.

Turning to `C(=C\c1ccccc1)/c1ccccc1` [Internal standard, trans-stilbene, reference compound], the fraction remaining at 24 h, 0.4 mg/mL in series [3] (stored at room temperature for 24 h) came out at 94.7 ± 0.3%. For the same compound, the fraction remaining at 480 h, 0.4 mg/mL in series [3] (stored at −20 °C for 20 days) came out at 105.3 ± 0.7%.

Regarding `COc1cc(/C=C/c2ccc(O)cc2)cc(OC)c1` [pterostilbene], the Brain bioavailability entry in series [1] (compared with ISO's limited brain penetration after oral administration) was “significantly improved brain bioavailability”.
